Reference: the CheMixHub viscosity set

Assay: xn = mol fraction of the nth substance listed

CC(O)CO (stereo not drawn) + CCCCO
viscosity [mPa·s], 100 kPa
Details	298.15 K	303.15 K	308.15 K	313.15 K	318.15 K	323.15 K
x2 = 0.1	27.93	21.57	16.86	13.38	10.79	8.811
x2 = 0.2	19.65	15.46	12.28	9.943	8.14	6.729
x2 = 0.302	14.18	11.36	9.188	7.539	6.25	5.239
x2 = 0.4	10.82	8.829	7.309	6.057	5.107	4.328
x2 = 0.5	8.015	6.634	5.555	4.699	–	–
x2 = 0.501	–	–	–	–	3.987	3.422
x2 = 0.6	6.068	5.094	4.337	3.686	–	–
x2 = 0.601	–	–	–	–	3.178	2.743
x2 = 0.701	4.884	4.156	3.556	3.057	2.659	2.317
x2 = 0.801	3.858	3.307	2.885	2.514	2.199	1.937
x2 = 0.9	3.102	2.716	2.374	2.078	–	–
x2 = 0.901	–	–	–	–	1.833	1.634

O=C1CCCC1 + CCCCO
303.15 K, 101 kPa
Details	viscosity [mPa·s]
x1 = 0.101	1.725
x1 = 0.2614	1.339
x1 = 0.4183	1.143
x1 = 0.5813	1.026
x1 = 0.7417	0.974
x1 = 0.899	0.959

Cc1ccccn1 + Brc1ccccc1
viscosity [mPa·s], 101 kPa
Details	x1 = 0.2	x1 = 0.4	x1 = 0.6	x1 = 0.8
293.15 K	1.072	1.016	0.954	0.885
313.15 K	0.833	0.785	0.736	0.684

ClC=C(Cl)Cl + CCCCOCCOCCO
298.15 K, 101.33 kPa
Details	viscosity [mPa·s]
x1 = 0.0171	5.12
x2 = 0.0067	0.539
x2 = 0.0185	0.56
x2 = 0.0282	0.577
x2 = 0.0462	0.609
x2 = 0.0623	0.643
x2 = 0.0798	0.68
x2 = 0.0916	0.708
x2 = 0.1239	0.784
x2 = 0.1624	0.89
x2 = 0.2002	0.999
x2 = 0.231	1.097
x2 = 0.268	1.224
x2 = 0.2998	1.339
x2 = 0.3306	1.46
x2 = 0.3622	1.598
x2 = 0.4019	1.789
x2 = 0.4263	1.914
x2 = 0.4614	2.087
x2 = 0.5031	2.305
x2 = 0.54	2.492
x2 = 0.6007	2.81
x2 = 0.6745	3.232
x2 = 0.7406	3.618
x2 = 0.7898	3.928
x2 = 0.8221	4.116
x2 = 0.8567	4.332
x2 = 0.8875	4.525
x2 = 0.9174	4.722
x2 = 0.9489	4.919
x2 = 0.9678	5.031

ClC=C(Cl)Cl + CCCCOCCO
viscosity [mPa·s], 101.33 kPa
Details	x1 = 0.1147	x1 = 0.2158	x1 = 0.3119	x1 = 0.4264	x1 = 0.5157	x1 = 0.6108	x1 = 0.687	x1 = 0.8076	x1 = 0.9043
303.15 K	2.11	1.821	1.568	1.297	1.111	0.937	0.817	0.671	0.582
313.15 K	1.646	1.451	1.271	1.074	0.934	0.806	0.718	0.608	0.537

Cc1ccccn1 + CO
101 kPa
Details	viscosity [mPa·s]
298.23 K, x1 = 0.4451	0.774
298.23 K, x1 = 0.5511	0.782
298.25 K, x1 = 0.1201	0.641
298.28 K, x1 = 0.6483	0.784
298.28 K, x1 = 0.8299	0.76
303.15 K, x1 = 0.2351	0.671
303.16 K, x1 = 0.1201	0.6
303.22 K, x1 = 0.6483	0.733
303.22 K, x1 = 0.8299	0.714
303.25 K, x1 = 0.4451	0.722
303.26 K, x1 = 0.5511	0.729
308.17 K, x1 = 0.1201	0.562
308.23 K, x1 = 0.6483	0.686
308.23 K, x1 = 0.8299	0.669
308.25 K, x1 = 0.5511	0.682
308.26 K, x1 = 0.4451	0.676
308.38 K, x1 = 0.2351	0.625
313.21 K, x1 = 0.2351	0.587
313.22 K, x1 = 0.1201	0.522
313.27 K, x1 = 0.6483	0.645
313.27 K, x1 = 0.8299	0.631
313.28 K, x1 = 0.4451	0.633
313.28 K, x1 = 0.5511	0.641
318.25 K, x1 = 0.2351	0.55
318.26 K, x1 = 0.1201	0.49
318.29 K, x1 = 0.6483	0.606
318.29 K, x1 = 0.8299	0.592
318.35 K, x1 = 0.5511	0.601
318.36 K, x1 = 0.4451	0.594

ClC=C(Cl)Cl + COc1ccccc1
303.15 K, 101.3 kPa
Details	viscosity [mPa·s]
x2 = 0.1234	0.523
x2 = 0.1791	0.541
x2 = 0.2335	0.561
x2 = 0.2818	0.577
x2 = 0.4018	0.623
x2 = 0.5204	0.672
x2 = 0.5501	0.682
x2 = 0.648	0.73
x2 = 0.7243	0.765
x2 = 0.8135	0.814

C1COCCN1 + NCCO
viscosity [mPa·s], 101 kPa
Details	293.15 K	303.15 K	313.15 K	323.15 K
x1 = 0.06557	20.7	–	–	–
x1 = 0.06901	–	–	8.726	–
x1 = 0.07	21.21	13.58	8.71	6.21
x1 = 0.2	14.61	9.65	6.44	4.68
x1 = 0.2273	–	–	6.709	–
x1 = 0.2293	14.65	–	–	–
x1 = 0.4	9.19	6.31	4.57	3.36
x1 = 0.4108	–	–	4.506	–
x1 = 0.4137	9.258	–	–	–
x1 = 0.6	5.53	3.97	2.94	2.24
x1 = 0.616	5.651	–	–	–
x1 = 0.6175	–	–	3.337	–
x1 = 0.8608	3.673	–	–	–
x1 = 0.8622	–	–	2.454	–
x1 = 0.9	3.22	2.54	1.98	1.61

N=C(N)NCCC[C@H](N)C(=O)O + O
viscosity [mPa·s]
Details	100 kPa	101 kPa
293.15 K, x1 = 0.00045	1.015	–
293.15 K, x1 = 0.00135	1.038	–
293.15 K, x1 = 0.002247	1.06	–
293.15 K, x1 = 0.002695	1.071	–
293.15 K, x1 = 0.00359	1.094	–
293.15 K, x1 = 0.008927	–	1.295
293.15 K, x1 = 0.01246	–	1.431
298.15 K, x1 = 0.00135	0.9205	–
303.15 K, x1 = 0.00045	0.8065	–
303.15 K, x1 = 0.00135	0.8226	–
303.15 K, x1 = 0.001798	0.8306	–
303.15 K, x1 = 0.002247	0.8385	–
303.15 K, x1 = 0.003143	0.854	–
303.15 K, x1 = 0.00359	0.8618	0.8782
308.15 K, x1 = 0.003143	0.7665	–
313.15 K, x1 = 0.003143	0.6924	–
313.15 K, x1 = 0.005375	–	0.7504
313.15 K, x1 = 0.01246	–	0.9039
318.15 K, x1 = 0.002695	0.6262	–
323.15 K, x1 = 0.0018	–	0.5712
323.15 K, x1 = 0.00359	–	0.597
323.15 K, x1 = 0.005375	–	0.6242
323.15 K, x1 = 0.008927	–	0.6832
323.15 K, x1 = 0.01246	–	0.7455

CCCCn1cc[n+](C)c1.COP(=O)([O-])OC + CCCCn1cc[n+](C)c1.O=S(=O)([N-]S(=O)(=O)C(F)(F)F)C(F)(F)F
Details	viscosity [mPa·s]
298.15 K, 100 kPa, x2 = 0.25	432.5

[Cl-].[Na+] + OCCO
101 kPa, x1 = 0.0588
Details	viscosity [mPa·s]
303 K	20.88
313 K	14.11
323 K	9.987

ClC=C(Cl)Cl + CCCCO
viscosity [mPa·s], 101 kPa
Details	x2 = 0.0983	x2 = 0.2464	x2 = 0.3954	x2 = 0.5452	x2 = 0.696	x2 = 0.8476
303.15 K	0.669	0.98	1.24	1.492	1.747	2
313.15 K	0.601	0.814	1.03	1.218	1.408	1.599
323.15 K	0.52	0.698	0.835	0.973	1.111	1.252
